The text below walks through data of PubChem BioAssay AID1745844 (Carcinogenic Potency Database (CPDB), 2022).

The source made the active and inactive calls. No rule for the calls is given here.

The subject of this series is rodent lifetime carcinogenesis bioassay, tumor incidence TD50. Nature of the series: chronic cancer bioassays in animals – CPDB, compiled studies (AID 1745844).

Consider `O=S(=O)([O-])[O-].[Ni+2]`, for which the carcinogen call by setting is: (mouse, strain B6C3F1, females, inhaled, site: any site (literature study), lesion: several types, types named in the paper, dosed 104 weeks, study length 104 weeks) “negative (inactive)”; (mouse, strain B6C3F1, males, inhaled, site: any site (literature study), lesion: several types, types named in the paper, dosed 104 weeks, study length 105 weeks) “negative (inactive)”; (rat, strain Fischer 344, females, inhaled, site: any site (literature study), lesion: several types, types named in the paper, dosed 104 weeks, study length 104 weeks) “negative (inactive)”; (rat, strain Fischer 344, males, inhaled, site: any site (literature study), lesion: several types, types named in the paper, dosed 104 weeks, study length 105 weeks) “negative (inactive)”. Besides, the TD50 reads like this: (mouse, strain B6C3F1, females, inhaled, site: lung, lesion: alveolar/bronchiolar adenoma + alveolar/bronchiolar carcinoma, dosed 104 weeks, study length 104 weeks) 3.1 mg/kg/day; (rat, strain Fischer 344, males, inhaled, site: liver, lesion: hepatocellular adenoma + hepatoblastoma + hepatocellular carcinoma, dosed 104 weeks, study length 105 weeks) 2.08 mg/kg/day.

Turning to `C[C@@H]1O[C@@]2(CS1)CN1CCC2CC1`, the carcinogen call (rat, strain F344/DuCrj, females, by gavage, site: liver, lesion: one or several types, types not named, dosed 52 weeks, study length 52 weeks) was “negative (inactive)” and the carcinogen call (rat, strain F344/DuCrj, males, by gavage, site: liver, lesion: one or several types, types not named, dosed 52 weeks, study length 52 weeks) is “negative (inactive)”.

As for `S=C(NC1CCCCC1)NC1CCCCC1`, the TD50 by setting is: (mouse, strain B6C3F1, females, in feed, site: any site (literature study), lesion: several types, types named in the paper, dosed 109 weeks, study length 103 weeks) 122000 mg/kg/day (inactive); (mouse, strain B6C3F1, females, in feed, site: lung, lesion: alveolar/bronchiolar adenoma + alveolar/bronchiolar carcinoma, dosed 109 weeks, study length 103 weeks) 1.11e+08 mg/kg/day; (rat, strain Fischer 344, males, in feed, site: any site (literature study), lesion: several types, types named in the paper, dosed 109 weeks, study length 109 weeks) 3910 mg/kg/day; (rat, strain Fischer 344, males, in feed, site: liver, lesion: hepatocellular adenoma + hepatocellular carcinoma + neoplastic nodule, dosed 109 weeks, study length 109 weeks) 15600 mg/kg/day; (rat, strain Fischer 344, males, in feed, site: skin, lesion: basal-cell carcinoma, dosed 109 weeks, study length 109 weeks) 26100 mg/kg/day; (rat, strain Fischer 344, males, in feed, site: thyroid gland, lesion: c-cell adenoma, dosed 109 weeks, study length 109 weeks) 5480 mg/kg/day (inactive). Also, where the note is “rat, strain Fischer 344, males, in feed, site: thyroid gland, lesion: follicular-cell adenoma + follicular-cell carcinoma, dosed 109 weeks, study length 109 weeks”, the TD50 was 7410 mg/kg/day. Besides, the carcinogen call runs as follows: (mouse, strain B6C3F1, males, in feed, site: any site (literature study), lesion: several types, types named in the paper, dosed 109 weeks, study length 103 weeks) “negative (inactive)”; (rat, strain Fischer 344, females, in feed, site: any site (literature study), lesion: several types, types named in the paper, dosed 109 weeks, study length 109 weeks) “negative (inactive)”.

As for `Clc1nc(Cl)nc(Nc2ccccc2Cl)n1`, the TD50 was 99.2 mg/kg/day (inactive) (mouse, strain B6C3F1, females, in feed, site: any site (literature study), lesion: several types, types named in the paper, dosed 103 weeks, study length 107 weeks); 2550 mg/kg/day (mouse, strain B6C3F1, females, in feed, site: liver, lesion: hepatocellular adenoma + hepatocellular carcinoma + neoplastic nodule, dosed 103 weeks, study length 107 weeks); 1690 mg/kg/day (mouse, strain B6C3F1, females, in feed, site: lung, lesion: alveolar/bronchiolar adenoma + alveolar/bronchiolar carcinoma, dosed 103 weeks, study length 107 weeks); 1050 mg/kg/day (rat, strain Fischer 344, females, in feed, site: liver, lesion: hepatocellular adenoma + hepatocellular carcinoma + neoplastic nodule, dosed 103 weeks, study length 104 weeks); 246 mg/kg/day (inactive) (rat, strain Fischer 344, males, in feed, site: any site (literature study), lesion: several types, types named in the paper, dosed 103 weeks, study length 104 weeks). In addition, the carcinogen call reads like this: (mouse, strain B6C3F1, males, in feed, site: any site (literature study), lesion: several types, types named in the paper, dosed 103 weeks, study length 107 weeks) “negative (inactive)”; (rat, strain Fischer 344, females, in feed, site: any site (literature study), lesion: several types, types named in the paper, dosed 103 weeks, study length 104 weeks) “negative (inactive)”.

`CC(COc1ccc(C(C)(C)C)cc1)OS(=O)OCCCl` (stereo not given): the TD50 (mouse, strain B6AKF1, females, oral dosing, site: any site (literature study), lesion: several types, types named in the paper, dosed 80 weeks, study length 80 weeks) came to 391 mg/kg/day; the TD50 (mouse, strain B6AKF1, females, oral dosing, site: lung, lesion: adenoma, dosed 80 weeks, study length 80 weeks) amounted to 432 mg/kg/day; the TD50 (mouse, strain B6AKF1, males, oral dosing, site: liver, lesion: hepatoma, dosed 77 weeks, study length 77 weeks) was 15900 mg/kg/day; the TD50 (mouse, strain B6C3F1, females, oral dosing, site: any site (literature study), lesion: several types, types named in the paper, dosed 77 weeks, study length 77 weeks) was 92.7 mg/kg/day; the TD50 (mouse, strain B6C3F1, females, oral dosing, site: liver, lesion: hepatoma, dosed 77 weeks, study length 77 weeks) came to 973 mg/kg/day; the TD50 (mouse, strain B6C3F1, females, oral dosing, site: lung, lesion: adenoma, dosed 77 weeks, study length 77 weeks) came out at 973 mg/kg/day. Besides, the TD50 by setting is: (mouse, strain B6C3F1, males, oral dosing, site: any site (literature study), lesion: several types, types named in the paper, dosed 80 weeks, study length 80 weeks) 103 mg/kg/day; (mouse, strain B6C3F1, males, oral dosing, site: liver, lesion: hepatoma, dosed 80 weeks, study length 80 weeks) 158 mg/kg/day; (mouse, strain B6C3F1, males, oral dosing, site: liver, lesion: several types, types named in the paper, dosed 80 weeks, study length 80 weeks) 126 mg/kg/day; (rat, strain CFN, both sexes, in feed, site: bile duct, lesion: adenoma, dosed 104 weeks, study length 104 weeks) 1010 mg/kg/day; (rat, strain CFN, both sexes, in feed, site: liver, lesion: hyperplastic nodule, dosed 104 weeks, study length 104 weeks) 61.8 mg/kg/day; (rat, strain Food and Drug Research Laboratories stock rats, both sexes, in feed, site: liver, lesion: several types, types named in the paper, dosed 93 weeks, study length 104 weeks) 430 mg/kg/day. Besides, the TD50 is 31.5 mg/kg/day (inactive) (rat, strain Osborne-Mendel, females, in feed, site: any site (literature study), lesion: benign tumor, dosed 104 weeks, study length 104 weeks); 256 mg/kg/day (inactive) (rat, strain Osborne-Mendel, females, in feed, site: liver, lesion: hemangioma, dosed 117 weeks, study length 117 weeks); 64.7 mg/kg/day (inactive) (rat, strain Osborne-Mendel, males, in feed, site: any site (literature study), lesion: benign tumor, dosed 104 weeks, study length 104 weeks); 101 mg/kg/day (inactive) (rat, strain Osborne-Mendel, males, in feed, site: any site (literature study), lesion: malignant tumor, dosed 117 weeks, study length 117 weeks); 198 mg/kg/day (inactive) (rat, strain Osborne-Mendel, males, in feed, site: any site (literature study), lesion: several types, types named in the paper, dosed 117 weeks, study length 117 weeks); 760 mg/kg/day (rat, strain Sprague-Dawley, both sexes, in feed, site: liver, lesion: hyperplastic nodule, dosed 104 weeks, study length 104 weeks). In addition, the TD50 by setting is: (rat, strain Wistar/FDRL, both sexes, in feed, site: bile duct, lesion: adenoma, dosed 104 weeks, study length 104 weeks) 397 mg/kg/day; (rat, strain Wistar/FDRL, both sexes, in feed, site: liver, lesion: hepatocellular carcinoma, dosed 104 weeks, study length 104 weeks) 1000 mg/kg/day; (rat, strain Wistar/FDRL, both sexes, in feed, site: liver, lesion: hyperplastic nodule, dosed 104 weeks, study length 104 weeks) 79.9 mg/kg/day. Further, the carcinogen call (rat, strain Osborne-Mendel, females, in feed, site: any site (literature study), lesion: malignant tumor, dosed 104 weeks, study length 104 weeks) was “negative (inactive)”; the carcinogen call (rat, strain Osborne-Mendel, females, in feed, site: any site (literature study), lesion: several types, types named in the paper, dosed 117 weeks, study length 117 weeks) was “negative (inactive)”; the carcinogen call (rat, strain Osborne-Mendel, females, in feed, site: liver, lesion: one or several types, types not named, dosed 104 weeks, study length 104 weeks) is “negative (inactive)”; the carcinogen call (rat, strain Osborne-Mendel, males, in feed, site: any site (literature study), lesion: malignant tumor, dosed 104 weeks, study length 104 weeks) is “negative (inactive)”; the carcinogen call (rat, strain Osborne-Mendel, males, in feed, site: liver, lesion: one or several types, types not named, dosed 104 weeks, study length 104 weeks) is “negative (inactive)”; the carcinogen call (rat, strain Osborne-Mendel, males, in feed, site: liver, lesion: one or several types, types not named, dosed 117 weeks, study length 117 weeks) was “negative (inactive)”.

On to `O=c1cc[nH]c(=O)[nH]1`, for which the TD50 (mouse, strain B6C3F1, females, in feed, site: liver, lesion: hyperplastic nodule, dosed 96 weeks, study length 96 weeks) turned out to be 18200 mg/kg/day; the TD50 (mouse, strain B6C3F1, females, in feed, site: urinary bladder, lesion: carcinoma, in situ, dosed 96 weeks, study length 96 weeks) was determined as 56700 mg/kg/day; the TD50 (mouse, strain B6C3F1, females, in feed, site: urinary bladder, lesion: leiomyosarcoma, dosed 96 weeks, study length 96 weeks) was determined as 56700 mg/kg/day; the TD50 (mouse, strain B6C3F1, females, in feed, site: urinary bladder, lesion: transitional-cell carcinoma, dosed 96 weeks, study length 96 weeks) was 1450 mg/kg/day; the TD50 (mouse, strain B6C3F1, males, in feed, site: liver, lesion: hyperplastic nodule, dosed 96 weeks, study length 96 weeks) was determined as 48800 mg/kg/day; the TD50 (mouse, strain B6C3F1, males, in feed, site: lung, lesion: adenocarcinoma, dosed 96 weeks, study length 96 weeks) was determined as 52300 mg/kg/day. Besides, the TD50 runs as follows: (mouse, strain B6C3F1, males, in feed, site: urinary bladder, lesion: squamous-cell carcinoma, dosed 96 weeks, study length 96 weeks) 25700 mg/kg/day; (mouse, strain B6C3F1, males, in feed, site: urinary bladder, lesion: transitional-cell carcinoma, dosed 96 weeks, study length 96 weeks) 25700 mg/kg/day; (rat, strain F344/DuCrj, females, in feed, site: kidney/pelvis, lesion: carcinoma, dosed 104 weeks, study length 104 weeks) 9760 mg/kg/day; (rat, strain F344/DuCrj, females, in feed, site: urinary bladder, lesion: squamous-cell papilloma, dosed 104 weeks, study length 104 weeks) 29300 mg/kg/day; (rat, strain F344/DuCrj, females, in feed, site: urinary bladder, lesion: transitional-cell carcinoma, dosed 104 weeks, study length 104 weeks) 5640 mg/kg/day; (rat, strain F344/DuCrj, females, in feed, site: urinary bladder, lesion: transitional-cell papilloma, dosed 104 weeks, study length 104 weeks) 4260 mg/kg/day. The TD50 (rat, strain F344/DuCrj, males, in feed, site: kidney/pelvis, lesion: carcinoma, dosed 104 weeks, study length 104 weeks) is 3090 mg/kg/day; the TD50 (rat, strain F344/DuCrj, males, in feed, site: kidney/pelvis, lesion: papilloma, dosed 104 weeks, study length 104 weeks) stood at 5750 mg/kg/day; the TD50 (rat, strain F344/DuCrj, males, in feed, site: urinary bladder, lesion: leiomyosarcoma, dosed 104 weeks, study length 104 weeks) worked out at 24300 mg/kg/day; the TD50 (rat, strain F344/DuCrj, males, in feed, site: urinary bladder, lesion: squamous-cell carcinoma, dosed 104 weeks, study length 104 weeks) was found to be 7800 mg/kg/day; the TD50 (rat, strain F344/DuCrj, males, in feed, site: urinary bladder, lesion: squamous-cell papilloma, dosed 104 weeks, study length 104 weeks) stood at 24300 mg/kg/day; the TD50 (rat, strain F344/DuCrj, males, in feed, site: urinary bladder, lesion: transitional-cell carcinoma, dosed 104 weeks, study length 104 weeks) is 357 mg/kg/day. Besides, where the note is “rat, strain F344/DuCrj, males, in feed, site: urinary bladder, lesion: transitional-cell papilloma, dosed 104 weeks, study length 104 weeks”, the TD50 turned out to be 511 mg/kg/day.
